According to US11142533B2, “Macrocycles for use in treating disease” (TURNING POINT THERAPEUTICS, INC., priority 2019, dated 2021):
Where two headings read alike, the source gives them in different places.

Assays:
[1] = target: T1, ALK (L1198F) (Homo sapiens, UniProt Q9UM73, L1198F); test: Biochemical kinase assay (Reaction Biology); conditions: 10 μM ATP
T1 construct: purchased Reaction Biology Corporation (contract assay)

[2] = target: T2, ALK (F1174S) (Homo sapiens, UniProt Q9UM73, F1174S); test: Biochemical kinase assay (Reaction Biology); conditions: 10 μM ATP
T2 construct: purchased Reaction Biology Corporation (contract assay)

[3] = target: T3, ALK (I1171N) (Homo sapiens, UniProt Q9UM73, I1171N); test: Biochemical kinase assay (Reaction Biology); conditions: 10 μM ATP
T3 construct: purchased Reaction Biology Corporation (contract assay)

[4] = target: T4, ALK (L1196M) (Homo sapiens, UniProt Q9UM73, L1196M); test: Biochemical kinase assay (Reaction Biology); conditions: 10 μM ATP
T4 construct: purchased Reaction Biology Corporation (contract assay)

[5] = target: T5, ALK (E1210K/D1203N) (Homo sapiens, UniProt Q9UM73, D1203N/E1210K); test: Biochemical kinase assay (Reaction Biology); conditions: 10 μM ATP
T5 construct: purchased Reaction Biology Corporation (contract assay)

[6] = target: T6, ALK (L1198F/C1156Y) (Homo sapiens, UniProt Q9UM73, C1156Y/L1198F); test: Biochemical kinase assay (Reaction Biology); conditions: 10 μM ATP
T6 construct: purchased Reaction Biology Corporation (contract assay)

[7] = target: T7, Ba/F3 cell-derived tumors with the EML4-ALK G1202R fusion (Homo sapiens, UniProt Q9UM73, G1202R); conditions: after 7 days of treatment
T7 sequence (Q9UM73 with tags, fused parts or gaps G1202R): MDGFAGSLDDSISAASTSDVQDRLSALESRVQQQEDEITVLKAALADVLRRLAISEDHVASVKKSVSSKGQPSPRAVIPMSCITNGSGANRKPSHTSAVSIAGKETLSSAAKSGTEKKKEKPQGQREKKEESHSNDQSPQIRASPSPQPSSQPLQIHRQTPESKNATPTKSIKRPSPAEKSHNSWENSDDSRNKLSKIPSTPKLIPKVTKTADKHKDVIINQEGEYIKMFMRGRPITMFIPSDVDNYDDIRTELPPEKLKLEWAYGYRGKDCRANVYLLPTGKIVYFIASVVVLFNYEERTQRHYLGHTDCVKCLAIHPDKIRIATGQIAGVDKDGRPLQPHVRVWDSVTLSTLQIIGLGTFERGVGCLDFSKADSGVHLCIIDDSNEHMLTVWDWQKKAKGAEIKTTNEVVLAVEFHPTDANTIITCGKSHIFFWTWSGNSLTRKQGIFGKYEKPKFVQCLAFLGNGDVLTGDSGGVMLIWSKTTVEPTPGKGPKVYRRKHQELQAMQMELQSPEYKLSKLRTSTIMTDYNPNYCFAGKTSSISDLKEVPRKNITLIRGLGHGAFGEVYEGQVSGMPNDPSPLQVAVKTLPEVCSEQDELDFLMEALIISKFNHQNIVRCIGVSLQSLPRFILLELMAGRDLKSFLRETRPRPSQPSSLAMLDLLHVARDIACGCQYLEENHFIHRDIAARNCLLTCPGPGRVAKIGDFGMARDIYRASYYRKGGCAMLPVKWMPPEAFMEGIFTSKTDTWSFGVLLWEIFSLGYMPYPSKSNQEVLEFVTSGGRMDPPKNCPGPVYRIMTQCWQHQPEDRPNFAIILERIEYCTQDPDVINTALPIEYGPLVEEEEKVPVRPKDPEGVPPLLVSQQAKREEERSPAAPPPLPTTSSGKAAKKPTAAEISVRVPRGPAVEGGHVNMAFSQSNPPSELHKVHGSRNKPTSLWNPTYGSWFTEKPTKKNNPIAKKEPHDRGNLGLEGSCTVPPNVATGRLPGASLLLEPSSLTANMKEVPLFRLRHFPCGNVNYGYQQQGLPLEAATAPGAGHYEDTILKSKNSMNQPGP

[8] = target: T8, ALK (Homo sapiens, UniProt Q9UM73); test: Biochemical kinase assay (Reaction Biology); conditions: 10 μM ATP
T8 construct: purchased Reaction Biology Corporation (contract assay)

[9] = target: T9, ALK (L1152P) (Homo sapiens, UniProt Q9UM73, L1152P); test: Biochemical kinase assay (Reaction Biology); conditions: 10 μM ATP
T9 construct: purchased Reaction Biology Corporation (contract assay)

[10] = target: T10, ALK (E1210K/S1206C) (Homo sapiens, UniProt Q9UM73, E1210K/S1206C); test: Biochemical kinase assay (Reaction Biology); conditions: 10 μM ATP
T10 construct: purchased Reaction Biology Corporation (contract assay)

[11] = target: T11, ALK (D1203N) (Homo sapiens, UniProt Q9UM73, D1203N); test: Biochemical kinase assay (Reaction Biology); conditions: 10 μM ATP
T11 construct: purchased Reaction Biology Corporation (contract assay)

[12] = target: T12, ALK (L1198F/G1202R) (Homo sapiens, UniProt Q9UM73, G1202R/L1198F); test: Biochemical kinase assay (Reaction Biology); conditions: 10 μM ATP
T12 construct: purchased Reaction Biology Corporation (contract assay)

[13] = target: T13, ALK (F1245C) (Homo sapiens, UniProt Q9UM73, F1245C); test: Biochemical kinase assay (Reaction Biology); conditions: 10 μM ATP
T13 construct: purchased Reaction Biology Corporation (contract assay)

[14] = target: T14, ALK (G1202R) (Homo sapiens, UniProt Q9UM73, G1202R); test: Biochemical kinase assay (Reaction Biology); conditions: 10 μM ATP
T14 construct: purchased Reaction Biology Corporation (contract assay)

[15] = target: T15, ALK (T1151M) (Homo sapiens, UniProt Q9UM73, T1151M); test: Biochemical kinase assay (Reaction Biology); conditions: 10 μM ATP
T15 construct: purchased Reaction Biology Corporation (assay run there)

[16] = target: T16, ALK (G1269S) (Homo sapiens, UniProt Q9UM73, G1269S); test: Biochemical kinase assay (Reaction Biology); conditions: 10 μM ATP
T16 construct: purchased Reaction Biology Corporation (contract assay)

[17] = target: Ba/F3 cell-derived tumors with the EML4-ALK L1196M/G1202R fusion (Homo sapiens, UniProt Q9UM73, G1202R/L1196M)

O=C1NCC2(CC2)COc2ccc(F)cc2CN2c3nc4c1cnn4cc3OC[C@H]2C(F)F [Compound 2, (16′S)-16′-(Difluoromethyl)-12′-fluoro-4′H,5′H,6′H,8′H,14′H,16′H,17′H-spiro[cyclopropane-1,7′-[1,19](metheno)[1,4]oxazino[3,4-j]pyrazolo[4,3-g][1,5,9,11]benzoxatriazacyclotetradecin]-4′-one]
IC50 [1]: 0.85 nM | IC50 [2]: 0.76 nM | IC50 [3]: 1.16 nM | IC50 [4]: 0.18 nM | IC50 [5]: 4 nM | IC50 [6]: 0.15 nM | Tumor growth inhibition (TGI) ([7]; 3 mg/kg BID oral): 51% | Tumor growth inhibition (TGI) ([7]; 10 mg/kg BID oral): 77% | body weight ([7]; 3 and 10 mg/kg BID): no body weight loss | IC50 [8]: 1.4 nM | IC50 [9]: 1.96 nM | IC50 [10]: 0.13 nM | IC50 [11]: 2.9 nM | IC50 [12]: 0.49 nM | IC50 [13]: 0.41 nM | IC50 [14]: 0.74 nM | IC50 [15]: 0.28 nM | IC50 [16]: 6.14 nM

CC1(C)COc2ccc(F)cc2CN2c3nc4c(cnn4cc3OC[C@H]2C(F)F)C(=O)N1 [Compound 1, (4S)-4-(Difluoromethyl)-8-fluoro-13,13-dimethyl-3,4,13,14-tetrahydro-6H-18,1-(metheno)[1,4]oxazino[3,4-i]pyrazolo[4,3-f][1,4,8,10]benzoxatriazacyclotridecin-15(12H)-one]
Tumor growth inhibition (TGI) ([17]; 0.6 mg/kg BID, after 7 days of treatment): 19% | Tumor growth inhibition (TGI) ([17]; 2 mg/kg BID, after 7 days of treatment): 44% | Tumor growth inhibition (TGI) ([17]; 5 mg/kg BID, after 7 days of treatment): 83% | Tumor growth inhibition (TGI) ([17]; 10 mg/kg BID, after 7 days of treatment): 200% | body weight ([17]; 2, 5, 10 mg/kg BID, after 7 days of treatment): no body weight loss | tumor growth compared with vehicle treated group ([17]; Compound 1 0.6 mg/kg BID or lorlatinib 5 mg/kg BID, day 14, p>0.05): not significantly different | Tumor growth inhibition (TGI) ([7]; 2 mg/kg BID oral): 64% | Tumor growth inhibition (TGI) ([7]; 5 mg/kg BID oral): 120% | Tumor growth inhibition (TGI) ([7]; 10 mg/kg BID oral): 200% | body weight ([7]; 2, 5, 10 mg/kg BID): no body weight loss
